Experiments:
[1] = Particle size distribution by dynamic light scattering (DLS); type: physicochemical
Procedure: Dynamic light scattering was used to evaluate size distribution of the nanocomplexes formed, and that of the pure protein. To produce particles containing the EGCG:β-Lg molar ratios 2:1, 4:1, 6:1, 8:1 and 10:1, two experiments were performed: • (1) β-Lg solution (0.54 mM, in 0.9 ml of 30 mM PBS, pH 7) was heated to 75° C. for 20 minutes, and then EGCG solutions (1.96 mM-10.25 mM, in 0.48 ml of 5 mM PBS, pH 2.5) were added. […] The final EGCG concentrations were 0.87 mM-4.36 mM (0.04%-0.2%), the final β-Lg concentration was 0.43 mM (0.8%) and the pH of the final solution was 6.88.
After polyphenol addition, samples were vortexed for 20 seconds and allowed to cool to room temperature before measurement.
Particle size distribution was studied by a dynamic light scattering (DLS) analyzer (NICOMP™ 380, Particle Sizing Systems Inc., Santa Barbara, Calif., USA) equipped with an Avalanche Photo Diode (APD) detector, used at a fixed angle of 90°. The 90 mW laser wavelength was 658 nm. Mono- bi- or tri-modal distributions were calculated from the scattered light intensity fluctuations, by cumulants Nicomp™ analysis of the auto correlation function (see supplementary information in (Shapira, Assaraf, & Livney, 2009) for a more complete method description). The size range for the Nicomp distribution analysis was set to 1-1,000 nm. Measurements were made in duplicates at 25° C. Table 3 and FIG. 7 show an increase in particle size with increasing EGCG concentration indicating the formation of preheated complexes/nanoparticles (75° C., 20 min before EGCG addition). The molar ratios of β-Lg to EGCG presented in FIG. 7 are: 1:0 (straight line), 1:2 (dotted line), 1:4 (broken line), 1:6 (bold line/dot/line; ? ), 1:8 (fine line/dot/line; ? ) and 1:10 (line/2 dots; ? ).
As detailed above, EGCG-β-Lg nanoparticles at neutral pH are smaller than 50 nm. In order to determine whether the addition of EGCG to the preheated β-Lg causes, in addition to a slight increase in size, a change in colloidal stability, different EGCG concentration solutions were added to the pre-heated β-Lg to create nano-complexes comprised of β-Lg:EGCG at molar ratios in the range of 1:0 to 1:8, while the β-Lg concentration remains constant at a neutral pH (6.8).
The size distribution of the nano-particles solution seemed to consist of two fractions. The first fraction included the small nano-particles in the range of 2-3 nm in diameter and the second fraction included nano-particles of about 15 nm. Since the size of the protein molecule is around 2 nm, it would be reasonable to assume that the smaller-size fraction represents unbound protein molecules or protein molecules with a few bound EGCG molecules, while the larger-size fraction represents complexes comprising several protein molecules, and probably also several EGCG molecules. […] It was important to see whether the increase in the fraction of the larger sized complexes causes a decrease in colloidal stability. Therefore the predicted stability of the same complexes was studied by measuring the electrophoretic mobility (EM) of the nanocomplexes (FIG. 9B). For uniform and moderate electric fields, a linear relationship usually exists between the steady-state electrophoretic mobility and the zeta potential value (Delgado, et al. (2007) Journal of Colloid and Interface Science, Vol. 309, pages 194-224). The zeta potential is calculated according to the measured electrophoretic mobility using several theoretical models available. The choice of a suitable model is carried out according to the ratio of the particle radius (a) and the Debye length (κ−1) (i.e. a/κ−1=κ*a) which characterize the studied composition. […] In the composition of the invention for the smaller particles (of ˜2-3 nm) the κ*a was approximately 1.5. For the larger complexes of about 15 nm, the κ*a value was approximately 7.5. […]

[2] = target: T1, preheated β-Lg (75° C., 20 min) (Bos taurus, UniProt P02754); assay: Intrinsic protein fluorescence quenching: binding of EGCG to preheated β-Lg (Langmuir-based model and modified Stern-Volmer); parameters: species or system bovine; conditions: for KSVa ± S.E. (Stern-Volmer quenching constant) / fa ± S.E. (fraction of fluorophore-sites accessible): preheated 20 min 75° C.; for Ka ± S.E.: protein preheated 20 min 75° C. before adding EGCG
T1 construct: Beta-lactoglobulin (β-Lg, 18.4 kDa, 162 amino acids) is the major whey protein in cow milk; purchased
T1 sequence (P02754 17-178): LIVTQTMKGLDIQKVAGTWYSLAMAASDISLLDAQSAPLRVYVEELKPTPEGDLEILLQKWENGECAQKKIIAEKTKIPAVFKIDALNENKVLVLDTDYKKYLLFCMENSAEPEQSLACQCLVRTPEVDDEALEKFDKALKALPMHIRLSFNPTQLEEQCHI
Procedure: (§1) It is based on exciting at 280 nm the Trp and Tyr residues of bovine β-Lg (bovine β-Lg contains two Trp residues and four Tyr residues) and at 295 nm where only Trp residues are excited though the quantum yield of the Trp itself is smaller than that at 280 nm.
(§2) All fluorescence measurements were performed at room temperature. β-Lg solution (2.09 μM in 1.9 ml of 30 mM PBS, pH 6.86) was heated at 75° C. for 20 minutes, or kept at room temperature. The co-assembly preparation process was done as described above. All measurements were performed after equilibrating the solutions at room temperature for 3 hours. EGCG solutions were 0-400 μM in 0.1 ml of 30 mM PBS, pH 2.44. All samples were prepared in triplicates. The pH of the final solutions was 6.86. β-Lg fluorescence was measured at constant protein concentration of 2 μM and EGCG concentrations of 0-20 μM using a Fluorolog 3-22 spectrofluorometer (Horiba, Jobin Yvon, Longjumeau, France) at a Right-Angle mode. Emission spectra were recorded from 290 to 510 nm with an excitation wavelength of 280 nm, and from 305 to 520 nm with an excitation wavelength of 295 nm, employing 5 nm slit widths. The statistical analysis and non-linear curve fitting were performed using Origin 8 (OriginLab, Northampton, USA).
(§3) Trp61 is reportedly quenched in the native state due to proximity to the Cys66-Cys160 disulfide bond, while Trp 19 is located in a non-polar environment within the cavity of the β-barrel structure, and is responsible for most of the Trp (and the protein) fluorescence. A small shift in the maximal emission wavelength of the protein occurred upon heating and was more clearly observed at the excitation wavelength attributed to Trp alone (295 nm). As only small shifts in the maximal wavelength occurred, all analyses were performed at emission of 343 nm for both excitation wavelengths. When studying the binding of EGCG to β-LG by fluorescence, it is important to keep in mind that EGCG, and not only β-LG, absorbs energy, both at the protein's excitation and, to a lower extent, at the emission wavelengths. Consequently, an inner filtering effect occurs, which intensifies with increasing EGCG concentration, reducing the amount of available energy to excite the protein' s fluorescent groups and absorbing some of the emitted energy too. To overcome this effect, the emission at 343 nm was corrected according to Beer-Lambert's law, using equation 1:
(§4) F=Fu·10^QL(ε^λex^+ε^λem^) (Equation 1)
(§5) where Fu is the measured, uncorrected emission intensity, ελex and ελem—the molar extinction coefficients of EGCG at the excitation and emission wavelengths respectively (measured spectrophotometrically, in the same buffer), Q is the quencher (EGCG) concentration in the cell and L is the path length assumed to be 0.5 cm each for the excitation and emission.
(§6) The analysis for determination of the binding constants was performed using a Langmuir-based model, assuming one affinity-class of binding sites, as described by equation (2): […]
(§7) where F and F0 are the fluorescence intensities of the protein solution in the presence and in the absence of the ligand, respectively; F∞ is the fluorescence when the protein is saturated with the ligand and L0 is the total ligand concentration. The decrease in the fluorescence in the presence of different EGCG concentrations was recorded, and the association constant (Ka) as well as the value for maximum fluorescence difference (ΔFmax=F0−F∞) were calculated by non-linear curve fitting to equation 2 (FIG. 5). The parameters for the fitting were based on the quenching of Tyr and Trp fluorescence at pH 6.87, for β-Lg concentration of 2 μM.
(§8) Fluorescence quenching is often described by the Stern-Volmer equation (3): […]
(§9) where F0 and F are the fluorescence intensities before and after the addition of the quencher, respectively, KSV is the Stern-Volmer quenching constant and [Q] is the concentration of the quencher. […]

[3] = target: T2, native β-Lg (Bos taurus, UniProt P02754); assay: Intrinsic protein fluorescence quenching: binding of EGCG to native β-Lg (Langmuir-based model and modified Stern-Volmer); parameters: species or system bovine; conditions: without preheating (RT)
T2 construct: Beta-lactoglobulin (β-Lg, 18.4 kDa, 162 amino acids) is the major whey protein in cow milk; purchased
T2 sequence (P02754 17-178): T1 sequence (P02754 17-178)
Procedure: as §1, §2, §3, §4, §5, §6, §7, §8, §9

[4] = Protection against EGCG oxidation: absorbance at 425 nm over time; type: physicochemical
Procedure: Aliquots of 2.5 ml EGCG solution were transferred to 1 cm path length spectrophotometer cuvettes and covered with parafilm to prevent evaporation. […] Solutions of 0.52 mM (0.95%) protein at a 2:1 molar ratio (EGCG:protein) and pH 6.85 were compared to pure EGCG solutions. The protein was preheated at 2 temperatures (75° C. and 85° C.) for 20 minutes or kept at room temperature, to compare the protection provided by the partially denatured protein to that of the native protein. The reason for testing these two temperatures was that according to the literature, at about this pH, between 65-75° C. small proteins oligomers are formed, while between 75-85° C. some aggregation of the oligomers occurs. […] Appropriate controls of β-Lg without EGCG and EGCG without β-Lg at the respective concentrations and pH were performed. After preparation, the samples were placed in 1 cm path length spectrophotometer cuvettes and covered with parafilm. […]

[5] = sodium phosphate buffer (pH 7.4); 3 hr; cited from earlier work
[6] = Loading efficiency and loading ratio of EGCG by centrifugal ultrafiltration; type: physicochemical; conditions: both β-Lg concentrations (0.5% and 1% w/w)
Procedure: The loading efficiency (the percentage of encapsulated substance out of total material added to the composition) and loading ratio (the ratio between the encapsulated substance and the encapsulation matrix) of EGCG was determined. β-Lg-EGCG nanoparticles solutions, of 2:1 and 8:1 EGCG: β-Lg molar ratios, were prepared at 1% w/w and 0.5% w/w protein solution. The entrapped EGCG in β-Lg nanoparticles was separated from the free EGCG by centrifugal ultrafiltration as described above. The molar loading ratio and the loading efficiency are presented on Table 4.

[7] = β-Lg 0.35 mM (0.65% (w/w) pH 6.56)
[8] = β-Lg 0.43 mM (0.8% (w/w) pH 6.56)

For “1:0: preheated β-lactoglobulin without EGCG (major whey protein in cow milk, 18.4 kDa)”, the size ([1]; rough summary of Table 3) was “around 2 nm”, the “d, Peak I (β-Lg)” value [1, 7] was 4.8 nm and the “fvw, Peak I (β-Lg)” value [1, 7] was 99.6%. The “d, Peak I (β-Lg)” value [1, 8] was 1.4 nm, the “d, Peak II (β-Lg-EGCG)” value [1, 8] was 20.2 nm and the “fvw, Peak I (β-Lg)” value [1, 8] was 99.8%. For the same compound, the “fvw, Peak II (β-Lg-EGCG)” value [1, 8] was 0.2%.
In the case of O=C(O[C@@H]1Cc2c(O)cc(O)cc2O[C@@H]1c1cc(O)c(O)c(O)c1)c1cc(O)c(O)c(O)c1 [EGCG, (−)-Epigallocatechin-3-gallate], the “KSVa ± S.E. (Stern-Volmer quenching constant)” value ([2]; excitation 280 nm) is reported as 3.31 ± 0.7 10^5 M^−1, the “fa ± S.E. (fraction of fluorophore-sites accessible)” value ([2]; excitation 280 nm) is reported as 0.32 ± 0.05 and the “Ka ± S.E.” value ([2]; excitation 280 nm) is reported as 3.7 ± 0.67 10^5 M^−1. The “KSVa ± S.E. (Stern-Volmer quenching constant)” value ([2]; excitation 295 nm) was 3.07 ± 1.05 10^5 M^−1, the “fa ± S.E. (fraction of fluorophore-sites accessible)” value ([2]; excitation 295 nm) was 0.25 ± 0.07 and the “Ka ± S.E.” value ([2]; excitation 295 nm) was 3.3 ± 1.07 10^5 M^−1. The Ka (association constant, Langmuir-based model fit) ([2]; pH 6.87, β-Lg 2 μM, FIG. 5 fit) was 370000 ± 67000 M⁻¹, the “ΔFmax*10^6 (maximum fluorescence difference)” value ([2]; pH 6.87, β-Lg 2 μM, FIG. 5 fit) was 3.31±0.17 and the “KSVa ± S.E. (Stern-Volmer quenching constant)” value ([3]; excitation 280 nm) was 1.4 ± 0.7 10^5 M^−1. The “Ka ± S.E.” value ([3]; excitation 280 nm) was 1.05 ± 0.34 10^5 M^−1, the “fa ± S.E. (fraction of fluorophore-sites accessible)” value ([3]; excitation 280 nm) was 0.16 ± 0.07 and the “KSVa ± S.E. (Stern-Volmer quenching constant)” value ([3]; excitation 295 nm) was 1.4 ± 0.7 10^5 M^−1. The “Ka ± S.E.” value ([3]; excitation 295 nm) was 1.9 ± 0.6 10^5 M^−1, the “fa ± S.E. (fraction of fluorophore-sites accessible)” value ([3]; excitation 295 nm) was 0.15 ± 0.06 and the “increase in the 425 nm absorbance with time” value ([4]; EGCG solution (0.05%) in pH 2.5 PBS) was “no increase”. The “degradation rate (absorbance at 425 nm)” value ([4]; PBS pH 6.8, EGCG 0.05%-0.5%) was “degradation rate increased with rising EGCG concentration”, the “EGCG degradation rate (increase in absorbance at 425 nm)” value ([4]; eight days at room temperature, EGCG 1.09 mM (0.05%), β-Lg 0.52 mM, pH 6.85) was “fastest increase in the absorbance” and the EGCG lost [5] was 80%.
For Cn1c(=O)c2c(ncn2C)n(C)c1=O [caffeine], the “binding or entrapment in β-Lg” value [6] was “did not show any binding or entrapment”.

— US20150182472A1, “DENATURED LACTOGLOBULIN AND POLYPHENOL COASSEMBLIES” (TECHNION RESEARCH AND DEVELOPMENT FOUNDTION LTD., priority 2010, published 2015)
